For test [1], the target named is Luciferin 4-monooxygenase (Photinus pyralis, UniProt P08659). In words: inhibition of purified Photinus pyralis luciferase – biochemical, luminescence, dose response (AID 1891).
Test [2] is described as follows: Luminescence Cell-Based Dose Confirmation HTS to Identify Inhibitors of Platelet Dense Granule Release. [Related pubchem assays: 1663 (Primary HTS), 1678 (Summary of Project)]. Format: functional.
Test [3] has as its target 26S proteasome non-ATPase regulatory subunit 14 (Homo sapiens, UniProt O00487). Briefly: inhibition of proteasome subunit RPN11 – biochemical, fluorescence polarization, uHTS hits, confirmation (AID 602368). It is filed as functional.
The target of test [4] is 72 kDa type IV collagenase (Homo sapiens, UniProt P08253). In words: Dose Response validation of uHTS RPN11 inhibitor hits using a MMP-2 Fluorescence assay. It is filed as functional.
Chain of 72 kDa type IV collagenase (P08253 whole entry): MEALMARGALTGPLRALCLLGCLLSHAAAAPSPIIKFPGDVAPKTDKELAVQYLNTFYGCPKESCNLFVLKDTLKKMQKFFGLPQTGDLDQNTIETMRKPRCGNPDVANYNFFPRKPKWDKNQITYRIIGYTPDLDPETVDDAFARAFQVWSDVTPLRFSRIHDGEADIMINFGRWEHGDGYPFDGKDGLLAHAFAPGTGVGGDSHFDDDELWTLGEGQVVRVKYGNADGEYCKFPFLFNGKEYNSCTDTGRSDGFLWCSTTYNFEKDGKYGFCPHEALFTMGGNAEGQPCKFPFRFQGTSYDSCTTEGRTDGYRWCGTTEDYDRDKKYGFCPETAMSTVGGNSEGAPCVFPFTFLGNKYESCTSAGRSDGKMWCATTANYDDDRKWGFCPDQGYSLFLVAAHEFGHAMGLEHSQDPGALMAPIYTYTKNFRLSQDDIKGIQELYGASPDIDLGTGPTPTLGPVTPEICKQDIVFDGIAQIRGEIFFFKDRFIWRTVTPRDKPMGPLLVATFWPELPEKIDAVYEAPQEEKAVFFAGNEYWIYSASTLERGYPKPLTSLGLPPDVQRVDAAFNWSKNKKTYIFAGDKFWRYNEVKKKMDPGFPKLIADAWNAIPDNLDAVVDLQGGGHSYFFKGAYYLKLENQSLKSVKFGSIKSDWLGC
The target in a further test is Prothrombin (Bos taurus, UniProt P00735). In words: thrombin protease inhibitors – biochemical, fluorescence polarization, uHTS hits, dose response (AID 602369). Format: functional. A general note: Fluorescence polarisation rises when a labelled molecule tumbles more slowly, as on binding a larger partner.
The target in the next test is Large T antigen (Simian virus 40, UniProt P03070). It is filed as functional, Betapolyomavirus macacae.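 Note: Confirmatory-stage PubChem screen for compounds that inhibit SV40 T antigen.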
The target of test [5] is Glucose-6-phosphate 1-dehydrogenase (Homo sapiens, UniProt P11413). Briefly: inhibition of Homo sapiens G6PD, dose series – biochemical, fluorescence, selectivity assay for P. falciparum G6PD inhibitor project, dose response (AID 504792). Format: functional.
For test [6], the target named is T1, RNA-binding protein pos-1 (Caenorhabditis elegans, UniProt G5EF15).
T1 sequence (G5EF15 whole entry): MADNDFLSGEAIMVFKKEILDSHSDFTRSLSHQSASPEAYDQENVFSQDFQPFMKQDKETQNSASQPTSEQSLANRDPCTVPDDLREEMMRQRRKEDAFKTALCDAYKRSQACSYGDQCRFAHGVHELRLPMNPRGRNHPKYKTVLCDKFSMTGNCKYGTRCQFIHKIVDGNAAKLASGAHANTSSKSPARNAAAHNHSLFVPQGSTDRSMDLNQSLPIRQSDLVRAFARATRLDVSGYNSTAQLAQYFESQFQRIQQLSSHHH
Briefly: disruptors of C. elegans POS-1 RNA interaction – biochemical, fluorescence polarization, dose response (AID 1964).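 Note: purified POS-1 fused to maltose binding protein made in E. coli; potency of compounds blocking POS-1 binding to fluorescent RNA.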

The target in test [7] is T2, Zinc finger protein mex-5 (Caenorhabditis elegans, UniProt Q9XUB2).
T2 sequence (Q9XUB2 whole entry): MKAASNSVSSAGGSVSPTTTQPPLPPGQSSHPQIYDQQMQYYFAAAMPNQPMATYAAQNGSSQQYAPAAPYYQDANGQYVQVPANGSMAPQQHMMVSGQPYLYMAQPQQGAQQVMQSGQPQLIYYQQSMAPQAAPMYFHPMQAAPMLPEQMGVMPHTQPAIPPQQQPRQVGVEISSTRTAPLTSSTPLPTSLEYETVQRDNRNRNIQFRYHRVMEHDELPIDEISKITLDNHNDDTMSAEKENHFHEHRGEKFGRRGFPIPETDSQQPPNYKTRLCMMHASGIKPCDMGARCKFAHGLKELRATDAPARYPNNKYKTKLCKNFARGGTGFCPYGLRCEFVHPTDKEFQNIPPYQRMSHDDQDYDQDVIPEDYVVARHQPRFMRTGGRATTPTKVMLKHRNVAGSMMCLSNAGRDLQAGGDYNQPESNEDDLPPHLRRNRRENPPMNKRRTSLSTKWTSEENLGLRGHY
Briefly: potency of MEX-5 RNA-binding blockers – biochemical, C. elegans, fluorescence polarization, dose response (AID 1960).

In test [8] the target is Intestinal-type alkaline phosphatase (Homo sapiens, UniProt P09923). In words: human intestinal alkaline phosphatase activators, dose response, biochemical, luminescence, uHTS hits (AID 463120). Format: functional.
Chain of Intestinal-type alkaline phosphatase (P09923 whole entry): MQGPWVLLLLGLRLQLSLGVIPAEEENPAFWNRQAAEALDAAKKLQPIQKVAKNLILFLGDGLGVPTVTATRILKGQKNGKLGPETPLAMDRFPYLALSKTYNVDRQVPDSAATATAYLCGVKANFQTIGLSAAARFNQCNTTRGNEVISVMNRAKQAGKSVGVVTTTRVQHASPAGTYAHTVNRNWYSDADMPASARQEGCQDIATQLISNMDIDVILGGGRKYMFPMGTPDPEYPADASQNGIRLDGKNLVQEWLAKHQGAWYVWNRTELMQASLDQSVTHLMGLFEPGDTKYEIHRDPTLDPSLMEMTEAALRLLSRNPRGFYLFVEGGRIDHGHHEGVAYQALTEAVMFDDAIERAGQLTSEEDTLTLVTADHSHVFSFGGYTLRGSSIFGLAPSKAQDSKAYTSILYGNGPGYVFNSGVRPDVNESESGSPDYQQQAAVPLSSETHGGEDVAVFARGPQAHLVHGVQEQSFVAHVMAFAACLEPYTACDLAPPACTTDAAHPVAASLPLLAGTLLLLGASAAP
For test [9], the target named is T3, Apoptotic protease-activating factor 1 (Homo sapiens, UniProt O14727).
T3 sequence (O14727 whole entry): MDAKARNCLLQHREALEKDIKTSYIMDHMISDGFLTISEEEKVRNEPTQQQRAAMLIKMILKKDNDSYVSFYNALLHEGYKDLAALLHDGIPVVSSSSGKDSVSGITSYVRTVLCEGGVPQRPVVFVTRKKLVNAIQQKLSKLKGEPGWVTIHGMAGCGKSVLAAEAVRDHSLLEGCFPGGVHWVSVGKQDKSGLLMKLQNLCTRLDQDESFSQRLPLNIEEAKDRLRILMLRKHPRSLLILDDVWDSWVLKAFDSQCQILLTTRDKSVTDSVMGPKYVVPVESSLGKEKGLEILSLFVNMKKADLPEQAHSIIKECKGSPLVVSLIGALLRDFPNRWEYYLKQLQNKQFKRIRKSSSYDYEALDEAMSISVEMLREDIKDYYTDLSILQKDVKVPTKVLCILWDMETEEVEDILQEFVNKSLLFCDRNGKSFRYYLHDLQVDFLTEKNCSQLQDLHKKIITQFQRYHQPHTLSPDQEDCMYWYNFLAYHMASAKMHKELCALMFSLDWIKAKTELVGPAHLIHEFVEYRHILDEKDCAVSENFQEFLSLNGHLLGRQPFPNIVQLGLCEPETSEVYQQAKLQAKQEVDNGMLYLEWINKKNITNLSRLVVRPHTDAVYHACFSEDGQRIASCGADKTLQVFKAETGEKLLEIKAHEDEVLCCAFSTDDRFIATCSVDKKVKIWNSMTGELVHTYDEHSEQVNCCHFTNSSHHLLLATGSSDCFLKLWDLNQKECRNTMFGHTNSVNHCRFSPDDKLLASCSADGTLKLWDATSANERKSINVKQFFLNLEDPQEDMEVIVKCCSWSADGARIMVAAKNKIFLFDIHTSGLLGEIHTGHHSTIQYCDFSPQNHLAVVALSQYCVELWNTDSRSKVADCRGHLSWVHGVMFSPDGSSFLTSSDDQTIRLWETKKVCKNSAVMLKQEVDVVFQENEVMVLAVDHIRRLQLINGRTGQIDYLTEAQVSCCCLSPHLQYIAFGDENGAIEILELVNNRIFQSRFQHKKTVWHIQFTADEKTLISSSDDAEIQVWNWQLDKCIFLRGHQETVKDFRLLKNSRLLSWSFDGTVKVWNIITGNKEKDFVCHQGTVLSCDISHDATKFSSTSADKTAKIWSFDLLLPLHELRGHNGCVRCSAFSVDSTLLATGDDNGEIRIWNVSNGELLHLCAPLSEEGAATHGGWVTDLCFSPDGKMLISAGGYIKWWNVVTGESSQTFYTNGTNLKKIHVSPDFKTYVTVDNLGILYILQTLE
It is filed as functional.

In test [10] the test system is Streptococcus sp. 'group A'. Briefly: Streptococcus pyogenes SK(-)GAS viability under kanamycin – luminescence, BacTiterGlo, confirmation, counter-screen for streptokinase expression inhibitor project, dose response (AID 1900). It is filed as functional, organism-based. For orientation: The purpose of a counterscreen is to sort out artefacts and off-target activity.

In the next test the target is T4, Streptokinase A (Streptococcus pyogenes serotype M1, UniProt P10520).
T4 sequence (P10520 whole entry): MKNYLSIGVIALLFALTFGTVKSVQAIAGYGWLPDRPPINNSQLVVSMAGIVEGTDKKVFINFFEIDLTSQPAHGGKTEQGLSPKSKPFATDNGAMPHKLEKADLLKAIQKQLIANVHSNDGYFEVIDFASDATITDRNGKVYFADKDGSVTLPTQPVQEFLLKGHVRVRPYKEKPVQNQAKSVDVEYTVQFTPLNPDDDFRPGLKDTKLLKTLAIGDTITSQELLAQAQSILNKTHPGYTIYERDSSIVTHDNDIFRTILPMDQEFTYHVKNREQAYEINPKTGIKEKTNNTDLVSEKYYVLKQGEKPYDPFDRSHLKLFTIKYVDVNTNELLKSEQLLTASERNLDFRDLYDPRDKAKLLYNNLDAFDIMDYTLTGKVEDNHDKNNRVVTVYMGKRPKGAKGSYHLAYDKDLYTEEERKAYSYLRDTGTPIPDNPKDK
In words: viability-normalized secreted streptokinase activity reduction – plasminogen activation absorbance, OD405, dose response (AID 1914).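 Note: secreted streptokinase activity via plasminogen activation per viability signal from cell pellet.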 It is filed as functional, Streptococcus pyogenes M1 GAS.

The next test has as its system Streptococcus. Briefly: GAS UMAA2166 growth inhibition – luminescence, BacTiterGlo, counter-screen for streptokinase expression inhibitor project, dose response (AID 1915).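 Note: potency for reduction of bacterial viability or growth.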 It is filed as functional, organism-based.
Another test has as its target Genome polyprotein (dengue virus type 2, UniProt P29990). Briefly: flavivirus cap methylation enzyme inhibition – biochemical, confirmation dose response, primary screen (AID 588689). It is filed as functional.
Test [11] has as its target DNA (cytosine-5)-methyltransferase 1 (Homo sapiens, UniProt P26358). In words: inhibition of DNA methylation by DNMT1 – biochemical, fluorescent molecular beacon, confirmation (AID 602386). It is filed as functional.
The test system of test [12] is BJ. Briefly: BJ-TERT fibroblast viability loss – cell-based, RAS-independent, luminescence, dose response (AID 1933). Particulars: Homo sapiens. It is filed as functional.
Test [13] has as its system BJ. In words: cells. It is filed as functional, cell-based. To be noted: Homo sapiens.
Test [14] is described as follows: Trypanosoma cruzi growth suppression in host cells – NIH3T3 host cells, beta-gal luminescence, confirmation (AID 2044).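 Note: intracellular parasites grown in NIH/3T3 mouse fibroblasts as host cells; luminescent beta-galactosidase reporter signal from transgenic T. cruzi replicating inside host cells; inhibitors lower the luminescence signal.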 Format: functional, cell-based.
Test [15] can be described thus: Luminescence-based dose response cell-based high throughput screening assay for cytotoxic compounds using the IEC-6 intestinal epithelial cell line. [Related pubchem assays: 1858 (Summary AID.), 1825 (Counterscreen.), 1907 (Confirmation screen.)]. It is filed as functional.
Test [16] in a line: NIH3T3 cell viability loss – ATP luminescence, mouse fibroblasts, counter-screen, dose response (AID 2010).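 Note: cells exposed to compound for about 90 hours before reading.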 Format: functional, cell-based.
For test [17], the system named is BJ. In words: BJ-TERT-LT-ST fibroblast viability loss – cell-based, RAS-independent, luminescence, dose response (AID 1935).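 Note: BJ fibroblasts immortalized with TERT plus LT and ST oncogenes.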 It is filed as functional. Particulars: Homo sapiens.
Test [18] is described as follows: DRD fibroblast viability loss – cell-based, non-viral oncogenic, luminescence, dose response (AID 1934). It is filed as functional. To be noted: Homo sapiens.
A short description of test [19]: HEK-293T viability loss after treatment – luminescence, T-cell screen hits, cytotoxicity control for TCR NF-kB inhibitor project, dose response (AID 489026).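 Note: cells exposed to compound about 14 hours before the viability readout.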 It is filed as functional, cell-based.
For another test, the target named is Nonstructural protein 1 (Influenza A virus, UniProt Q194T2). It is filed as functional, Influenza A virus (A/California/07/2009(H1N1)).
Chain of Nonstructural protein 1 (Q194T2 whole entry): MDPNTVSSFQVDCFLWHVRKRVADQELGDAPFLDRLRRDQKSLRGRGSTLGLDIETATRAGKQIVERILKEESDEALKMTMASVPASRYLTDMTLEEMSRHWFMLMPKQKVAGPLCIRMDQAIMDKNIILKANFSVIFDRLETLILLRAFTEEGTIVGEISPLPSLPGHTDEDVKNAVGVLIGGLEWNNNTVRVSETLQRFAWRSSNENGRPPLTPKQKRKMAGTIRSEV
For a further test, the system named is INS1. In words: INS-1E survival protection against cytokine death – cell-based, luminescence, retest, dose response (AID 449756).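 Note: cell death triggered by IL-1 beta plus TNF-alpha plus IFN-gamma mixture; protective hits raise ATP signal compared with cytokine alone wells.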 Format: functional. Particulars: Rattus norvegicus.

For 8 compounds, EC50, IC50 and AC50 results are on record in ChEMBL document CHEMBL1201862, “PubChem BioAssay data set” (2004).

The structures appear in SMILES notation. Activity calls are given as the source filed them.

Chain of 26S proteasome non-ATPase regulatory subunit 14 (O00487 whole entry): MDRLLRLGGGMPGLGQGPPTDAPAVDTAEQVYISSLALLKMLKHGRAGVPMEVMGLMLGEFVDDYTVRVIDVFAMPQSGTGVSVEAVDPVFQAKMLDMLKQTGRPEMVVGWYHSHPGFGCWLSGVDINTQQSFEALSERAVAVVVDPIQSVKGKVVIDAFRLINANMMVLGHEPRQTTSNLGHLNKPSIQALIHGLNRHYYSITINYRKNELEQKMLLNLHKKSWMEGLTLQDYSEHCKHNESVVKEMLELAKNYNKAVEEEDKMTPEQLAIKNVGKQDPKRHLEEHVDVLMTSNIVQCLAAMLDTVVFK
Chain of DNA (cytosine-5)-methyltransferase 1 (P26358 whole entry): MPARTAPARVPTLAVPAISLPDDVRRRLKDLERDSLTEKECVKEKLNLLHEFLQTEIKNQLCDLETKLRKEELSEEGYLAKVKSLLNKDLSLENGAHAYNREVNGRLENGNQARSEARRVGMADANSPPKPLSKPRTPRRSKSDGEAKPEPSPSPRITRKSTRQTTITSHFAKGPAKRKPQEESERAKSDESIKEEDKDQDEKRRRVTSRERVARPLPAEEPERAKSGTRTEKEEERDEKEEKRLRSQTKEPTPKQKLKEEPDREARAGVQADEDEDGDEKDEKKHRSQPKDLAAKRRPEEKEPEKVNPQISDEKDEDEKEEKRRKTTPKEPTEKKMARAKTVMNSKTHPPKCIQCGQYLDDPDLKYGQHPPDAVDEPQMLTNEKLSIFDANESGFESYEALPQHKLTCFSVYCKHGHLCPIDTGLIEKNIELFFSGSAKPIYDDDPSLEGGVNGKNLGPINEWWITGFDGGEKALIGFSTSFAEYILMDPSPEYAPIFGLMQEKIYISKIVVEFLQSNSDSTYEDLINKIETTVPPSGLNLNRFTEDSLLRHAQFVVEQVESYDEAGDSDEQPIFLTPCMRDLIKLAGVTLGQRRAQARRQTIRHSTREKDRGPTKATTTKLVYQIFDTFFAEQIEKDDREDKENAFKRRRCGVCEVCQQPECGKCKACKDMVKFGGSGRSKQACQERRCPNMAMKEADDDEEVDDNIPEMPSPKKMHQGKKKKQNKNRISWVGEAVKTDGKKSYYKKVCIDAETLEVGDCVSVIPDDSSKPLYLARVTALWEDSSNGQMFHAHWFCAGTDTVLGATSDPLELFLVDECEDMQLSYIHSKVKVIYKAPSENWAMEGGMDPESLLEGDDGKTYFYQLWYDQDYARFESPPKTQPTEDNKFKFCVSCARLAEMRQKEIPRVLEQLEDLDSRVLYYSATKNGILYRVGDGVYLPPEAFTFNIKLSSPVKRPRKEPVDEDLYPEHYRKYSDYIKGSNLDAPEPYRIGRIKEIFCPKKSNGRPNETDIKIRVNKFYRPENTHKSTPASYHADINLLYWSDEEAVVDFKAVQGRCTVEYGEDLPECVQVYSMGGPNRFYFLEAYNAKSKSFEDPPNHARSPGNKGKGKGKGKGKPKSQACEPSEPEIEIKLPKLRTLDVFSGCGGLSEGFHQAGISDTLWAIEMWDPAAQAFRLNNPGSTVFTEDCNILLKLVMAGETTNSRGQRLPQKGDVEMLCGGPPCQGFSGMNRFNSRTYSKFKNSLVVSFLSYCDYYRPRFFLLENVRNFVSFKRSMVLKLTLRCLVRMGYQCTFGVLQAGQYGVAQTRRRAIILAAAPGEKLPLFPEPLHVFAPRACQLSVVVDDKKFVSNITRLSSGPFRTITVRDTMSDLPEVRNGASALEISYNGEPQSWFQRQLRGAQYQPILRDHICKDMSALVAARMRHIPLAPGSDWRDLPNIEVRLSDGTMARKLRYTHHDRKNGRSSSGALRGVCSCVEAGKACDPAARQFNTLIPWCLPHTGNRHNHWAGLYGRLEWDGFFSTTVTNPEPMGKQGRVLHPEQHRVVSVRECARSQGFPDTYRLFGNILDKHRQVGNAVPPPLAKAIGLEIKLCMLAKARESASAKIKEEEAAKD
Chain of Luciferin 4-monooxygenase (P08659 whole entry): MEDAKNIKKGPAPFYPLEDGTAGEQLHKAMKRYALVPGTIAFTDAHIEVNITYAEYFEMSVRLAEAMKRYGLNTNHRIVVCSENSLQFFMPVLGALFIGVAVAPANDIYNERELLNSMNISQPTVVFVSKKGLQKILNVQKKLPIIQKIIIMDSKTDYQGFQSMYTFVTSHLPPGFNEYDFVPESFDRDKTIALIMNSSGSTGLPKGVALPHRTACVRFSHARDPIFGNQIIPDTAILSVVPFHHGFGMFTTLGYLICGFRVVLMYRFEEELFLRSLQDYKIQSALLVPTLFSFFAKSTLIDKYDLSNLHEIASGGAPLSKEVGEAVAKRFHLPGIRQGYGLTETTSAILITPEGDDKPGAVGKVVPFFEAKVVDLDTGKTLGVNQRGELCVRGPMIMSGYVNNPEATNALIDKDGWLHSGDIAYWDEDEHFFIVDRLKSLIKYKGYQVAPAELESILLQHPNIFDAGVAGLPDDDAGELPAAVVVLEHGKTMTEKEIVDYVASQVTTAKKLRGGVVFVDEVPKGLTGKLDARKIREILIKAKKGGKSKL
Chain of Genome polyprotein (P29990 2492-3391 limits assumed): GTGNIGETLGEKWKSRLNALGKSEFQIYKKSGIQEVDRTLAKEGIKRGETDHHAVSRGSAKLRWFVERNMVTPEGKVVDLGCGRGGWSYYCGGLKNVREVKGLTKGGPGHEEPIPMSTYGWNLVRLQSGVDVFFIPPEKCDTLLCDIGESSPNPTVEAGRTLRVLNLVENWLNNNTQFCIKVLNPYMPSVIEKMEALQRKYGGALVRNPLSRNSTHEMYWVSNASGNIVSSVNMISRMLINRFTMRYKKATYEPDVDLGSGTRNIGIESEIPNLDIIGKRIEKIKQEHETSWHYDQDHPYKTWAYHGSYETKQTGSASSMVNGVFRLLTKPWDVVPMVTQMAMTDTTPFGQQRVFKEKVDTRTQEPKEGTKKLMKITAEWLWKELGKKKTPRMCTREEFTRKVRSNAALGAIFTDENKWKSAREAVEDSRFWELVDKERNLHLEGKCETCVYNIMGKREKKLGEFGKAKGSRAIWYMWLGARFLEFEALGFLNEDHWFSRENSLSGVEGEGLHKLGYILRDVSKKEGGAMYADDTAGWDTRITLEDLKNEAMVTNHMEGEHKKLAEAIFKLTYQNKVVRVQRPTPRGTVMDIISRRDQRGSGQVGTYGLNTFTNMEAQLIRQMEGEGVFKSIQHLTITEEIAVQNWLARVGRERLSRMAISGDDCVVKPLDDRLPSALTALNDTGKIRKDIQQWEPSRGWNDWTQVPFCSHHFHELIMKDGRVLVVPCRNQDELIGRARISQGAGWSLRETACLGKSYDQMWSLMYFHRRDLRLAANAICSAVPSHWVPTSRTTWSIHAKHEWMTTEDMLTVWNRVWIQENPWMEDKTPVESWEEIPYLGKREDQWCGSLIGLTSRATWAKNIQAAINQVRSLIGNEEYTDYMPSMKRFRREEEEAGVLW

For orientation: EC50 means the concentration giving half of the maximal effect. As a reminder, the IC50 is the point on the concentration scale where inhibition reaches its midpoint. Consider `COC(=O)c1c(-c2cccnc2)csc1NC(=O)c1ccc2c(c1)OCO2`, for which the results for the half-maximal effective concentration (EC50) in [1] and in test [2] were 0.77 µM (active) and 8.11 µM (active), respectively. Moreover, the half-inhibitory concentration (IC50) in test [3] is 37.5 µM (active); in test [4] it was > 100 µM (inactive); at Prothrombin it was 96.1 µM (active).

As for `COc1cc(/C=C2\SC(c3ccc(C)cc3)=NC2=O)cc(OC)c1O`, the IC50 on Large T antigen is 16.5 µM (active); in [5], 63.1 µM (inactive); in test [3] it was 2.18 µM (active); in [4], 42.1 µM (active); at Prothrombin it was 1.37 µM (active).

With `Cc1ccc(-n2ncc3c(NNC(=O)c4ccco4)ncnc32)cc1C`, the EC50 in [6] is > 300 µM (not active); in test [7] it was 142 µM (active); in [8] it was 6.81 µM (active).

For `Cc1ccc(OCC(=O)N(Cc2nnc(-c3ccccc3Cl)o2)C2CC2)cc1C`, in test [9], the half-maximal inhibitory concentration (IC50) was 31.9 µM (active).

In the case of `COc1ccccc1-c1cc(C(=O)Nc2cc(C)nn2-c2ccccc2)no1`, the IC50 in test [3] is 36 µM (active); in [4], > 100 µM (inactive); at Prothrombin, > 100 µM (inactive).

Take `O=C(O)CN1C(=O)/C(=C\c2cc(Br)ccc2OCc2ccccc2Cl)SC1=S`: the EC50 was 1.97 µM (active) in test [10], > 150 µM (not active) on Streptokinase A and 5.9 µM (active) in the test on Streptococcus. Besides, the IC50 at Genome polyprotein was 24.3 µM (active); in [11] it was 4.7 µM (active).

For `O=C(CNC(=O)c1ccc([N+](=O)[O-])cc1)N/N=C\c1ccc(OC(=O)c2ccccc2)cc1`, the IC50 in [11] is > 99 µM (inactive).

A word on the AC50: it is the concentration at which the activity in the assay is half-maximal. As to `C/C(=N\NC(=O)c1ccc(Cl)c(Cl)c1)c1ccccn1`, the 50% effective concentration (EC50) in test [10] was 0.099 µM (active); in the test on BJ [12], 0.38 µM (inconclusive); in the test with BJ [13] it was 1.37 µM (active); in [14] it was 0.125 µM (active); in test [16], 0.656 µM (active); in the test with BJ [17], 0.674 µM (inconclusive). In addition, the results for the concentration giving a half-maximal response (EC50) (in test [18]; with Streptococcus) were 1.01 µM (active) and 1.84 µM (active), respectively. Moreover, the IC50 in [15] was 0.563 µM (active); in test [19], > 80 µM (inactive); on Nonstructural protein 1 it was 3.03 µM (active). Also, the AC50 in the test on INS1 was 0.278 µM (active).
